Data on 5 compounds can be found in patent US4284635A, “Analgesic 1,2,4,5-tetra-alkyl-4-arylpiperidines” (Eli Lilly and Company, priority 1978, dated 1981).

Each structure is given as a SMILES string.

The experiment is described as follows: rat-tail jerk assay (rats subjected to a heat sensation). It counts as in vivo. The note with it: subcutaneous. From the text: The analgesic activity of a number of compounds provided by this invention has been determined in the standard rat-tail jerk assay and the mouse writhing assay. The results in the mouse writhing assay are presented as the effective dose in mg./kg. of the tested compound required to inhibit induced writhing in the test animals by fifty percent (ED50). Results are presented in Column II for both subcutaneous (S.C.) and oral (p.o.) administration of the test compound recited in Column I.
Column III presents the effects of the claimed compounds on rats subjected to a heat sensation. The compounds recited in column I were administered subcutaneously to the test animals. The test results are reported as the minimum effective dose (MED) of compound in mg./kg. needed to delay response to the pain stimulus by one second compared to control animals.

On to `CC1CC(C)(c2cccc(O)c2)C(C)CN1C` (centres unmarked) [1,2,4,5-Tetramethyl-4-(3-hydroxyphenyl)piperidine], for which the “Rat Tail Jerk MED 1 sec. (minimum effective dose needed to delay response to the pain stimulus by one second compared to control animals)” value stood at 1 mg/kg. Turning to `COc1cccc(C2(C)CC(C)N(C)CC2C)c1` (centres unmarked) [1,2,4,5-Tetramethyl-4-(3-methoxyphenyl)piperidine], the “Rat Tail Jerk MED 1 sec. (minimum effective dose needed to delay response to the pain stimulus by one second compared to control animals)” value came out at 10 mg/kg. Next, `CCCC1(c2cccc(OC)c2)CC(C)N(C)CC1C` (centres unmarked) [1,2,5-Trimethyl-4-n-propyl-4-(3-methoxyphenyl)piperidine]: 2 mg/kg. On to `CCCC1(c2cccc(O)c2)CC(C)N(C)CC1C` (centres unmarked) [1,2,5-trimethyl-4-n-propyl-4-(3-hydroxyphenyl)piperidine], for which the “Rat Tail Jerk MED 1 sec. (minimum effective dose needed to delay response to the pain stimulus by one second compared to control animals)” value came out at 20 mg/kg. With `CCOC(=O)C1(c2ccccc2)CCN(C)CC1` [Meperidine, reference compound], the “Rat Tail Jerk MED 1 sec. (minimum effective dose needed to delay response to the pain stimulus by one second compared to control animals)” value stood at 3.0 mg/kg.
